How the values were obtained:
GFAP = GFAP astrogliosis (western blot, immunostaining); format: in vivo, mouse
Protocol: (§1) VX-765 (Adooq Bioscience, Irvine, CA, USA) was dissolved 5 mg • ml^−1 in 20% cremophor in dH2O[60] (Sigma-Aldrich, ON, Canada) and administered IPWT and J20 mice received three injections per week of either 50 mg • kg^−1 VX-765 or 20% cremophor vehicle for 4 weeks between 2 and 3 months of age. Mice were longitudinally followed starting 4 weeks after the last injection [4-week washout (WO)], then every other month at 12- and 20-week WO (6 and 8 months of age, respectively). Intermediate 8- and 16-week WO periods were also looked at with a smaller number of mice. After each WO period, animals were randomly chosen, independent of behavioural performance, for sacrifice and assigned to either histological or biochemical analysis (Fig. 2a).
Mice for immunohistochemistry were isoflurane anesthetized and perfused with ice-cold 4% paraformaldehyde in 0.1 M PBS (Sigma-Aldrich). Brains were post-fixed overnight in 10% neutral-buffered formalin (ThermoFisher Scientific, ON, Canada) and transferred to 70% ethanol for paraffin embedding and sectioning at 4 μm. Tissue slides underwent heat-induced antigen retrieval with citrate or EDTA buffer. […]
Iba1-positive microglia were quantified using a modified version of an area-specific counting frame. […] Microglial activation level was determined based on morphological measurements[19],[41]. Aβ1-40 and GFAP immunostaining density was measured across four sections using ImageJ software (NIH, Bethesda, MD, USA). Quantification was blinded to treatment and genotype.
Twenty to sixty micrograms of protein or 16 μl of precipitated protein from culture medium were separated on SDS-PAGE or 4–12% NuPAGE Bis-Tris gels (Invitrogen, Carlsbad, CA, USA) with MES buffer (Invitrogen) and transferred onto PVDF membranes (Bio-Rad) according to the manufacturer’s instructions. […] Protein levels were normalized to β-actin and expressed as a percentage relative to the vehicle-treated WT group, except for APP which was compared to the vehicle-treated J20 group. […]

in vivo = settings: female, C57BL/6J, mouse, ip, 50 mg/kg; for half-life: Half-life (t1/2) in plasma; for MRT inf: MRTinf in plasma
Protocol: Plasma, whole brain and CSF concentrations of VX-765 and its active metabolite, VRT-043198, were determined by LC-MS/MS at Paraza Pharma (Montreal, QC, Canada). Fourteen C57BL/6J female mice received a single IP dose of 50 mg · kg^−1 VX-765 and 2 mice per time point were euthanized at 0.25, 0.5, 1, 3, 6, 8 and 24 h post-injection. Mice were isoflurane anesthetized to collect CSF and perform a cardiac puncture followed by whole body perfusion with PBS. Plasma samples were extracted 1:1 in spiking solution and internal standard solution containing 0.1 μM glyburide in acetonitrile. Brain and CSF samples were extracted 1:1 in spiking solution and internal standard solution containing 0.2 μM labetalol in 50:50 methanol:acetonitrile. Samples were centrifuged at 4000 × g for 10 min at 4 °C, the plasma supernatant diluted 1:1 and the brain and CSF supernatant diluted 1:2 in H2O, and 5 μl was injected into a Quantis LC-MS/MS system for analysis.

Aβ = Aβ immunostaining density and ELISA (RIPA- and FA-soluble); format: in vivo, mouse
Protocol: as §1
Mice for immunohistochemistry were isoflurane anesthetized and perfused with ice-cold 4% paraformaldehyde in 0.1 M PBS (Sigma-Aldrich). Brains were post-fixed overnight in 10% neutral-buffered formalin (ThermoFisher Scientific, ON, Canada) and transferred to 70% ethanol for paraffin embedding and sectioning at 4 μm. Tissue slides underwent heat-induced antigen retrieval with citrate or EDTA buffer. Immunostaining was performed using the Dako Autostainer Plus slide processor and EnVision Flex system (Dako, ON, Canada). Sections were peroxidase treated, blocked in Serum-Free Protein Block, and immunostained with the following antibodies: 1:2000 rabbit anti-Iba1 (Wako, VA, USA), 1:500 rat anti-CD68 (clone FA-11, Bio-Rad, Hercules, CA, USA), 1:8000 rabbit anti-GFAP (Dako) and 1:2000 rabbit anti-Aβ1-40 (F25276, laboratory developed). CD68 antibody required an additional rabbit anti-rat IgG/HRP secondary reagent (Dako) incubation. […] Sections were digitally scanned with MIRAX SCAN (Zeiss, ON, Canada) and used for subsequent analyses.
Iba1-positive microglia were quantified using a modified version of an area-specific counting frame. The number of Iba1-positive cells per mm^3 in the anterior CA1 region and cortex was estimated across four sections, spaced 60 μm apart. Microglial activation level was determined based on morphological measurements[19],[41]. Aβ1-40 and GFAP immunostaining density was measured across four sections using ImageJ software (NIH, Bethesda, MD, USA). Quantification was blinded to treatment and genotype.
ELISA samples were prepared in RIPA described above. RIPA-insoluble pellets were further extracted in 70% formic acid (FA) in dH2O. FA was evaporated in a speed vacuum, and the resulting pellet was solubilized in 200 mM Tris-HCl, pH 7.5. IL-1β and Aβ levels (which include Aβ38, Aβ40 and Aβ42) were measured using Meso Scale Discovery ELISA kits (Rockville, MD, USA). Standards and samples were prepared according to the manufacturer’s protocols and run in duplicate.

CCO[C@@H]1OC(=O)C[C@@H]1NC(=O)[C@@H]1CCCN1C(=O)[C@@H](NC(=O)c1ccc(N)c(Cl)c1)C(C)(C)C [VX-765, (S)-1-((S)-2-{[1-(4-amino-3-chloro-phenyl)-methanoyl]-amino}-3,3-dimethyl-butanoyl)-pyrrolidine-2-carboxylic acid ((2R,3S)-2-ethoxy-5-oxo-tetrahydro-furan-3-yl)-amide]
delay of GFAP astrogliosis (GFAP; J20): 3 months
immunopositive GFAP astrogliosis (GFAP; J20 hippocampus and cortex): prevented astrogliosis until 8- and 12-week WO in the hippocampus and cortex, respectively
hippocampal GFAP levels (western blot) (GFAP; J20 hippocampus, 4- and 20-week WO): normalized with VX-765 treatment only at 20-week WO
concentration at 0.25 h (in vivo; CSF concentration, Mean): 330 nM
concentration at 0.5 h (in vivo; CSF concentration, Mean): 620 nM
concentration at 1 h (in vivo; CSF concentration, Mean): 80 nM
concentration at 3 h (in vivo; CSF concentration, Mean): 60 nM
concentration at 6 h (in vivo; CSF concentration, Mean): 60 nM
concentration at 8 h (in vivo; CSF concentration, Mean): 100 nM
concentration at 0.25 h (in vivo; CSF concentration, Mouse 1): 210 nM
concentration at 0.5 h (in vivo; CSF concentration, Mouse 1): 70 nM
concentration at 1 h (in vivo; CSF concentration, Mouse 1): 60 nM
concentration at 3 h (in vivo; CSF concentration, Mouse 1): 70 nM
concentration at 6 h (in vivo; CSF concentration, Mouse 1): 50 nM
concentration at 8 h (in vivo; CSF concentration, Mouse 1): 70 nM
concentration at 0.25 h (in vivo; CSF concentration, Mouse 2): 450 nM
concentration at 0.5 h (in vivo; CSF concentration, Mouse 2): 1170 nM
concentration at 1 h (in vivo; CSF concentration, Mouse 2): 100 nM
concentration at 3 h (in vivo; CSF concentration, Mouse 2): 40 nM
concentration at 6 h (in vivo; CSF concentration, Mouse 2): 60 nM
concentration at 8 h (in vivo; CSF concentration, Mouse 2): 130 nM
Cmax (in vivo; Cmax in CSF, Mean): 690 nM
Cmax (in vivo; Cmax in CSF, Mouse 1): 210 nM
Cmax (in vivo; Cmax in CSF, Mouse 2): 1170 nM
Cmax (in vivo; Cmax in brain, Mean): 160 nM
Cmax (in vivo; Cmax in brain, Mouse 1): 240 nM
Cmax (in vivo; Cmax in brain, Mouse 2): 90 nM
Cmax (in vivo; Cmax in plasma, Mean): 1590 nM
Cmax (in vivo; Cmax in plasma, Mouse 1): 1540 nM
Cmax (in vivo; Cmax in plasma, Mouse 2): 1630 nM
half-life (in vivo; Mean): 192 min
half-life (in vivo; Mouse 1): 193 min
half-life (in vivo; Mouse 2): 190 min
MRT inf (in vivo; Mean): 313 min
MRT inf (in vivo; Mouse 1): 288 min
MRT inf (in vivo; Mouse 2): 338 min
Tmax (in vivo; Tmax in CSF, Mean): 22.8 min
Tmax (in vivo; Tmax in CSF, Mouse 1): 15 min
Tmax (in vivo; Tmax in CSF, Mouse 2): 30 min
Tmax (in vivo; Tmax in brain, Mean): 22.8 min
Tmax (in vivo; Tmax in brain, Mouse 1): 15 min
Tmax (in vivo; Tmax in brain, Mouse 2): 30 min
Tmax (in vivo; Tmax in plasma, Mean): 45 min
Tmax (in vivo; Tmax in plasma, Mouse 1): 30 min
Tmax (in vivo; Tmax in plasma, Mouse 2): 60 min
concentration at 0.25 h (in vivo; brain concentration, Mean): 160 nM
concentration at 0.5 h (in vivo; brain concentration, Mean): 70 nM
concentration at 0.25 h (in vivo; brain concentration, Mouse 1): 240 nM
concentration at 0.5 h (in vivo; brain concentration, Mouse 1): 50 nM
concentration at 0.25 h (in vivo; brain concentration, Mouse 2): 70 nM
concentration at 0.5 h (in vivo; brain concentration, Mouse 2): 90 nM
concentration at 0.25 h (in vivo; plasma concentration, Mean): 290 nM
concentration at 0.5 h (in vivo; plasma concentration, Mean): 1010 nM
concentration at 1 h (in vivo; plasma concentration, Mean): 1250 nM
concentration at 3 h (in vivo; plasma concentration, Mean): 400 nM
concentration at 6 h (in vivo; plasma concentration, Mean): 330 nM
concentration at 8 h (in vivo; plasma concentration, Mean): 320 nM
concentration at 24 h (in vivo; plasma concentration, Mean): 10 nM
concentration at 0.25 h (in vivo; plasma concentration, Mouse 1): 310 nM
concentration at 0.5 h (in vivo; plasma concentration, Mouse 1): 1540 nM
concentration at 1 h (in vivo; plasma concentration, Mouse 1): 870 nM
concentration at 3 h (in vivo; plasma concentration, Mouse 1): 450 nM
concentration at 6 h (in vivo; plasma concentration, Mouse 1): 430 nM
concentration at 8 h (in vivo; plasma concentration, Mouse 1): 200 nM
concentration at 24 h (in vivo; plasma concentration, Mouse 1): 8 nM
concentration at 0.25 h (in vivo; plasma concentration, Mouse 2): 270 nM
concentration at 0.5 h (in vivo; plasma concentration, Mouse 2): 490 nM
concentration at 1 h (in vivo; plasma concentration, Mouse 2): 1630 nM
concentration at 3 h (in vivo; plasma concentration, Mouse 2): 350 nM
concentration at 6 h (in vivo; plasma concentration, Mouse 2): 220 nM
concentration at 8 h (in vivo; plasma concentration, Mouse 2): 450 nM
concentration at 24 h (in vivo; plasma concentration, Mouse 2): 14 nM
FA-soluble Aβ42 levels, Aβ42/total Aβ ratio, cortical Aβ subtypes (Aβ; J20, 20-week WO): did not affect hippocampal Aβ42 levels and Aβ42/total Aβ ratio, or any Aβ subtype in the cortex
Aβ staining density (Aβ; J20 hippocampus and cortex, vs vehicle): significantly decreased Aβ staining density only in the cortex at 12-week WO
RIPA-soluble Aβ38, Aβ40, Aβ42 or total Aβ levels (Aβ; J20 hippocampus or cortex, all WO periods, vehicle vs VX-765): no significant differences
formic acid (FA)-soluble total Aβ levels (Aβ; J20 hippocampus or cortex, any WO period): did not differ between vehicle and VX-765 treatment
FA-soluble hippocampal Aβ38 and Aβ40 levels (Aβ; J20 hippocampus, 20-week WO): increased FA-soluble hippocampal Aβ38 and Aβ40 levels at 20-week WO
RIPA-soluble Aβ42/total Aβ ratio (Aβ; J20 hippocampus, 20-week WO): significantly higher in vehicle- compared to VX-765-treated hippocampus in J20 mice at 20-week WO
